The source of these data is BindingDB's records for doi:10.1016/j.bmcl.2009.10.099 (Merck Research Laboratories, 2010).

This test deals with Cholesteryl ester transfer protein (Homo sapiens) (UniProt P11597). Briefly: inhibition of human CETP assessed as cholesteryl ester transfer by fluorescence transfer assay.
Cholesteryl ester transfer protein (Homo sapiens), sequence (P11597 whole entry, looked up): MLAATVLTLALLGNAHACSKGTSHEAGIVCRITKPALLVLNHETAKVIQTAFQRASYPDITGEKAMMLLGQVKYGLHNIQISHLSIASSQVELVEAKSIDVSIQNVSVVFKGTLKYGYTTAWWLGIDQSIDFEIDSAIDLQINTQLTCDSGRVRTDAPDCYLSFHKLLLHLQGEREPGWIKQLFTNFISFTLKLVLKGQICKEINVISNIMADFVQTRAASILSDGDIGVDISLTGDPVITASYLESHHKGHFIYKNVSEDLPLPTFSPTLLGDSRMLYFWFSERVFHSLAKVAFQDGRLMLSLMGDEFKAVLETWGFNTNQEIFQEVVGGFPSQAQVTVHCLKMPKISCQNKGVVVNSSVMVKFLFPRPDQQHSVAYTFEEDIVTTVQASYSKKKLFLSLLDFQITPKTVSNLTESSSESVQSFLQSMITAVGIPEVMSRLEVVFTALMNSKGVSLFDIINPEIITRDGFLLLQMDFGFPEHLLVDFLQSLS
In the case of `Cc1ccccc1OCC(=O)Nc1ccc(-c2nc3cc([N+](=O)[O-])ccc3o2)cc1`, the half-inhibitory concentration (IC50) came out at 940 nM.
With `CC(=O)c1cc(C#N)cc2nc(-c3ccc(NC(=O)COc4ccccc4C)cc3)oc12`, the IC50 was 86 nM.
As to `Cc1cc2oc(-c3ccc(NC(=O)COc4ccccc4C)cc3)nc2cc1Cl`, the IC50 was over 100000 nM.
With `Cc1ccccc1OCC(=O)Nc1ccc(-c2nc3cccc(Cl)c3o2)cc1`, the IC50 came to 21000 nM.
To `Cc1ccccc1OCC(=O)Nc1ccc(-c2nc3c(C)c(Br)ccc3o2)cc1` belongs over 100000 nM; to `Cc1ccccc1OCC(=O)Nc1ccc(-c2nc3cc(Br)cc(F)c3o2)cc1`, 910 nM.
Take `Cc1ccc2oc(-c3ccc(NC(=O)COc4ccccc4C)cc3)nc2c1`: the IC50 was 2000 nM.
The same measure for `CC#CC(C)(O)c1cc(C#N)cc2nc(-c3ccc(NC(=O)COc4ccccc4C)cc3)oc12` (configuration not stated): 160 nM.
The same measure for `Cc1ccccc1OCC(=O)Nc1ccc(-c2nc3ccc([N+](=O)[O-])cc3o2)cc1`: 3200 nM.
`Cc1ccccc1OCC(=O)Nc1ccc(-c2nc3ccc(F)cc3o2)cc1`: the IC50 is 7500 nM.
The same measure for `Cc1ccccc1OCC(=O)Nc1ccc(-c2nc3cc(Br)cc(C(C)(C)O)c3o2)cc1`: 44 nM.
Regarding `Cc1ccccc1OCC(=O)Nc1ccc(-c2nc3cc(C(C)O)ccc3o2)cc1` (configuration not stated), the IC50 stood at 3400 nM.

The term IC50 denotes the concentration that gives 50% inhibition.
